From PubChem BioAssay (NCI)
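At the GI50, growth is halved. At the TGI there is no net growth.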

Legend:
Assay in all cases: NCI-60 cell line screen, 384-well format; in the data active = GI50 below about 0.43 µM; inactive = the rest
786-0 renal = system: 786-0 renal
A498 renal = system: A498 renal
A549 NSCLC = system: A549 NSCLC
ACHN renal = system: ACHN renal
CAKI-1 renal = system: CAKI-1 renal
CCRF-CEM leukemia = system: CCRF-CEM leukemia
COLO 205 colon = system: COLO 205 colon
DU-145 prostate = system: DU-145 prostate
EKVX NSCLC = system: EKVX NSCLC
HCC-2998 colon = system: HCC-2998 colon
HCT-116 colon = system: HCT-116 colon
HCT-15 colon = system: HCT-15 colon
HL-60(TB) leukemia = system: HL-60(TB) leukemia
HOP-62 NSCLC = system: HOP-62 NSCLC
HOP-92 NSCLC = system: HOP-92 NSCLC
HS 578T breast = system: HS 578T breast
HT29 colon = system: HT29 colon
IGROV1 ovarian = system: IGROV1 ovarian
K-562 leukemia = system: K-562 leukemia
KM12 colon = system: KM12 colon
LOX IMVI melanoma = system: LOX IMVI melanoma
M14 melanoma = system: M14 melanoma
MALME-3M melanoma = system: MALME-3M melanoma
MCF7 breast = system: MCF7 breast
MDA-MB-231 breast = system: MDA-MB-231 breast
MDA-MB-468 breast = system: MDA-MB-468 breast
MOLT-4 leukemia = system: MOLT-4 leukemia
NCI-H226 lung = system: NCI-H226 lung
NCI-H23 lung = system: NCI-H23 lung
NCI-H322M lung = system: NCI-H322M lung
NCI-H460 NSCLC = system: NCI-H460 NSCLC
NCI-H522 lung = system: NCI-H522 lung
NCI/ADR-RES ovarian = system: NCI/ADR-RES ovarian
OVCAR-3 ovarian = system: OVCAR-3 ovarian
OVCAR-4 ovarian = system: OVCAR-4 ovarian
OVCAR-5 ovarian = system: OVCAR-5 ovarian
OVCAR-8 ovarian = system: OVCAR-8 ovarian
PC-3 prostate = system: PC-3 prostate
RPMI-8226 leukemia = system: RPMI-8226 leukemia
RXF 393 renal = system: RXF 393 renal
SF-268 CNS = system: SF-268 CNS
SF-295 CNS = system: SF-295 CNS
SF-539 CNS = system: SF-539 CNS
SK-MEL-2 melanoma = system: SK-MEL-2 melanoma
SK-MEL-28 melanoma = system: SK-MEL-28 melanoma
SK-MEL-5 melanoma = system: SK-MEL-5 melanoma
SK-OV-3 ovarian = system: SK-OV-3 ovarian
SN12C renal = system: SN12C renal
SNB-19 CNS = system: SNB-19 CNS
SNB-75 CNS = system: SNB-75 CNS
SR leukemia = system: SR leukemia
SW-620 colon = system: SW-620 colon
T-47D breast = system: T-47D breast
TK-10 renal = system: TK-10 renal
U251 glioblastoma = system: U251 glioblastoma
UACC-257 melanoma = system: UACC-257 melanoma
UACC-62 melanoma = system: UACC-62 melanoma
UO-31 renal = system: UO-31 renal

COc1cc2ncnc3c2cc1OCCCCCN(C)Cc1ccc(Br)cc1N3
5.34 µM: TGI (SK-OV-3 ovarian)
5.17 µM: TGI (SR leukemia)
> 20.7 µM: TGI (T-47D breast)
1.46 µM: TGI (NCI-H322M lung)
> 22 µM: TGI (SK-MEL-2 melanoma)
> 100 µM: TGI (786-0 renal) | TGI (A498 renal) | TGI (A549 NSCLC) | TGI (CAKI-1 renal) | TGI (CCRF-CEM leukemia) | TGI (COLO 205 colon) | TGI (DU-145 prostate) | TGI (EKVX NSCLC) | TGI (HCC-2998 colon) | TGI (HCT-116 colon) | TGI (HCT-15 colon) | TGI (HOP-62 NSCLC) | TGI (HOP-92 NSCLC) | TGI (HS 578T breast) | TGI (HT29 colon) | TGI (K-562 leukemia) | TGI (KM12 colon) | TGI (LOX IMVI melanoma) | TGI (M14 melanoma) | TGI (MALME-3M melanoma) | TGI (MCF7 breast) | TGI (MDA-MB-231 breast) | TGI (NCI-H226 lung) | TGI (NCI-H23 lung) | TGI (NCI-H460 NSCLC) | TGI (NCI/ADR-RES ovarian) | TGI (OVCAR-3 ovarian) | TGI (OVCAR-4 ovarian) | TGI (OVCAR-5 ovarian) | TGI (OVCAR-8 ovarian) | TGI (PC-3 prostate) | TGI (RXF 393 renal) | TGI (SF-268 CNS) | TGI (SF-295 CNS) | TGI (SF-539 CNS) | TGI (SK-MEL-28 melanoma) | TGI (SK-MEL-5 melanoma) | TGI (SN12C renal) | TGI (SNB-19 CNS) | TGI (SNB-75 CNS) | TGI (SW-620 colon) | TGI (TK-10 renal) | TGI (U251 glioblastoma) | TGI (UACC-257 melanoma) | TGI (UACC-62 melanoma) | TGI (UO-31 renal)
3.28 µM: TGI (HL-60(TB) leukemia)
inactive: GI50 ([…]-0 renal) 3.92 µM | GI50 (A549 NSCLC) 2.64 µM | GI50 (CAKI-1 renal) 1.36 µM | GI50 (CCRF-CEM leukemia) 4 µM | GI50 (COLO 205 colon) > 21.1 µM | GI50 (DU-145 prostate) 1.52 µM | GI50 (EKVX NSCLC) 0.612 µM | GI50 (HCC-2998 colon) 5.37 µM | GI50 (HCT-116 colon) 3.8 µM | GI50 (HCT-15 colon) 2.86 µM | GI50 (HL-60(TB) leukemia) 1.66 µM | GI50 (HOP-62 NSCLC) 4.74 µM | GI50 (HOP-92 NSCLC) 3.32 µM | GI50 (HS 578T breast) 1.84 µM | GI50 (HT29 colon) > 20.9 µM | GI50 (K-562 leukemia) 3.88 µM | GI50 (KM12 colon) 7.47 µM | GI50 (LOX IMVI melanoma) 3.67 µM | GI50 (M14 melanoma) 3.82 µM | GI50 (MALME-3M melanoma) 3.33 µM | GI50 (MCF7 breast) 8.25 µM | GI50 (MDA-MB-231 breast) 7.15 µM | GI50 (MOLT-4 leukemia) 2.15 µM | GI50 (NCI-H226 lung) 5.87 µM | GI50 (NCI-H23 lung) 4.73 µM | GI50 (NCI-H460 NSCLC) 3.37 µM | GI50 (NCI/ADR-RES ovarian) 3.03 µM | GI50 (OVCAR-3 ovarian) 1.07 µM | GI50 (OVCAR-4 ovarian) 2.39 µM | GI50 (OVCAR-5 ovarian) 3.95 µM | GI50 (OVCAR-8 ovarian) 3.02 µM | GI50 (PC-3 prostate) 4.02 µM | GI50 (RPMI-8226 leukemia) 2.58 µM | GI50 (RXF 393 renal) 3.22 µM | GI50 (SF-268 CNS) > 100 µM | GI50 (SF-295 CNS) 7.08 µM | GI50 (SF-539 CNS) > 100 µM | GI50 (SK-MEL-2 melanoma) 2.22 µM | GI50 (SK-MEL-28 melanoma) > 27.3 µM | GI50 (SK-MEL-5 melanoma) 3.32 µM | GI50 (SK-OV-3 ovarian) 0.643 µM | GI50 (SN12C renal) 1.1 µM | GI50 (SNB-19 CNS) > 100 µM | GI50 (SNB-75 CNS) 4.58 µM | GI50 (SR leukemia) 1.72 µM | GI50 (SW-620 colon) 6.27 µM | GI50 (T-47D breast) 0.798 µM | GI50 (U251 glioblastoma) 5.7 µM | GI50 (UACC-257 melanoma) > 100 µM | GI50 (UACC-62 melanoma) 2.16 µM | GI50 (UO-31 renal) 1.45 µM
2.85 µM: TGI (IGROV1 ovarian)
0.356 µM: TGI (MDA-MB-468 breast)
2.97 µM: TGI (NCI-H522 lung)
> 19.9 µM: TGI (ACHN renal)
active: GI50 (A498 renal) 0.383 µM | GI50 (ACHN renal) 0.263 µM | GI50 (IGROV1 ovarian) 0.419 µM | GI50 (MDA-MB-468 breast) 0.0909 µM | GI50 (NCI-H322M lung) 0.191 µM | GI50 (NCI-H522 lung) 0.287 µM | GI50 (TK-10 renal) 0.352 µM
> 20.6 µM: TGI (RPMI-8226 leukemia)
